Structures are written as SMILES. Bounds are passed on as bounds.

In the first test the target is T1, phosphatase ABI1 via the co-regulator RCAR11/PYR1 (Arabidopsis thaliana, UniProt O49686+P49597).
T1 sequence (O49686 1-191): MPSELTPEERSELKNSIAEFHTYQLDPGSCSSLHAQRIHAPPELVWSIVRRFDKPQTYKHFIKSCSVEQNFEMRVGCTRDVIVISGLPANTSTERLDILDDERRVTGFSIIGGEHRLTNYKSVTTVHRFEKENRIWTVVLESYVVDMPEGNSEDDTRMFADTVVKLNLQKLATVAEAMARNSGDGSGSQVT
T1 sequence (P49597 1-434): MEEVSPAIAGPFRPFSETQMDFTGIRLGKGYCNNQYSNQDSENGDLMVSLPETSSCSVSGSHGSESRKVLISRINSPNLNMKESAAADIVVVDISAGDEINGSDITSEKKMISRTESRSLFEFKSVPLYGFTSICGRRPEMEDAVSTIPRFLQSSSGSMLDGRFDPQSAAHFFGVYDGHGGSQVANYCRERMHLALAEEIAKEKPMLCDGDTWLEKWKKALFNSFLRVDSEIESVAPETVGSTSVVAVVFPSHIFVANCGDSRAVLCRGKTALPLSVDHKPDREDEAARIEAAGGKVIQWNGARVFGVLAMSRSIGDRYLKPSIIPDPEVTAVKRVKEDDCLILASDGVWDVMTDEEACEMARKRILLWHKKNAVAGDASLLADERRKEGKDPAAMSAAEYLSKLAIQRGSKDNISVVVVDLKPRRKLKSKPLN
Nature of the test: In vitro assay: inhibition of the phosphatase ABI1 via the co-regulator RCAR11/PYR1, MUP dephosphorylation, fluorescence. In kind it is biochemical. Also noted: inhibition: dose or concentration left out as unconfirmed. The note with it: MUP dephosphorylation, fluorescence 460 nm; read-out: ABI1 inhibition. An excerpt: Effects of the phytohormone abscisic acid (ABA) on the behaviour of plants under abiotic stress and the mechanism of action of ABA are described in the literature (cf. Abrams et al, WO97/23441, Cutler, Park et al. Science, 2009, 324, 1068; Grill et al. Science, 2009, 324, 1064; Tanokura et al. Biophysics, 2011, 7, 123; Schroeder et al. Plant J. 2010, 61, 290). Therefore, it is possible with the aid of a suitable in vitro test system to derive a correlation between the action of ABA and the stress response of a plant under abiotic stress. Under drought stress, plants form the phytohormone abscisic acid (ABA). This binds, along with a co-regulator (Regulatory Component of ABA-Receptor=RCAR according to Grill et al. Science, 2009, 324, 1064 or PYR/PYL according to Cutler et al. Science, 2009, 324, 1068), to a phosphatase (e.g. ABI1, a type 2C protein phosphatase, also abbreviated to PP2C) and inhibits its activity. As a result, a “downstream” kinase (e.g. SnRK2) is no longer dephosphorylated. This kinase, which is thus active, via phosphorylation of transcription factors (e.g. AREB/ABF, vgl. Yoshida et al., Plant J. 2010, 61, 672), switches on a genetic protection programme to increase drought stress tolerance.
The assay described hereinafter utilizes the inhibition of the phosphatase ABI1 via the co-regulator RCAR11/PYR1 aus Arabidopsis thaliana.
For the determination of activity, the dephosphorylation of 4-methylumbelliferyl phosphate (MUP) was measured at 460 nm. The in vitro assay was conducted in Greiner 384-well PS microplates F-well, using two controls: a) dimethyl sulphoxide (DMSO) 0.5% (f.c.) and b) 5 μM (f.c.) abscisic acid (ABA). […] The substance solution thus obtained, if necessary, was stirred with esterase from porcine liver (EC 3.1.1.1) at room temperature for 3 h and centrifuged at 4000 rpm for 30 min. A total volume of 45 μl was introduced into each cavity of the microplate, having the following composition: • 1) 5 μl of substance solution, i.e. a) DMSO 5% or b) abscisic acid solution or c) the corresponding example compound of the general formula (I) dissolved in 5% DMSO. • 2) 20 μl of enzyme buffer mix, composed of a) 40% by vol. of enzyme buffer (10 ml contain equal proportions by volume of 500 mM Tris-HCl pH8, 500 mM NaCl, 3.33 mM MnCl2, 40 mM dithiothreitol (DTT)), b) 4% by vol. of ABI1 dilution (protein stock solution was diluted so as to give, after addition, a final concentration in the assay of 0.15 μg ABI1/well), c) 4% by vol. of RCAR11 dilution (enzyme stock was diluted so as to give, on addition of the dilution to the enzyme buffer mix, a final concentration in the assay of 0.30 μg enzyme/well), d) 5% by vol. of Tween20 (1%), e) 47% by vol. H2O bi-dist. • 3) 20 μl of substrate mix, composed of a) 10% by vol. of 500 mM Tris-HCl pH8, b) 10% by vol. of 500 mM NaCl, c) 10% by vol. of 3.33 mM MnCl2, d) 5% by vol. of 25 mM MUP, 5% by vol. of Tween20 (1%), 60% by vol. of H2O bi-dist.
Enzyme buffer mix and substrate mix were made up 5 minutes prior to the addition and warmed to a temperature of 35° C. On completion of pipetting of all the solutions and on completion of mixing, the plate was incubated at 35° C. for 20 minutes. Finally, a relative fluorescence measurement was made at 35° C. with a BMG Labtech “POLARstar Optima” microplate reader using a 340/10 nm excitation filter and a 460 nm emission filter. The efficacy of the compounds of the general formula (I) is reported in the table which follows using abscisic acid (No. 64) as comparative substance according to the following classification: ++++ (inhibition≥90%), +++ (90%>inhibition≥70%), ++ (70%>inhibition≥50%), +(50%>inhibition≥30%).
Effects of selected compounds of the general formula (I) in the above-described in vitro assay at a concentration of 5 mM of the substance of the general formula (I) in question in a solution of DMSO and water: […]
For the compound `CCOC(=O)/C=C(/C)C#CC(O)(c1ccccc1)C1(C#N)CC1` (centres unmarked) [I.1.236], the inhibition (commonly how much of the control response was suppressed) was over 90%. On the same count and under the same terms, to `CCC(=C/C(=O)OC)/C=C/C(O)(C1CCCCC1)C1(C#N)CC1` (centres unmarked) [I.2-579, Methyl (2Z,4E)-6-(1-cyanocyclopropyl)-6-cyclohexyl-3-ethyl-6-hydroxyhexa-2,4-dienoate] belongs over 90%; to `CCC(CC)C(O)(/C=C/C(=C\C(=O)OC)C(F)(F)F)C1(C#N)CC1` (centres unmarked) [I.2-585, Methyl (2E,4E)-6-(1-cyanocyclopropyl)-7-ethyl-6-hydroxy-3-(trifluoromethyl)nona-2,4-dienoate], over 90%.

The test is the same for the next values; noted with them: concentration of 5 mM of the substance in a solution of DMSO and water; MUP dephosphorylation, fluorescence 460 nm.
Regarding `CCOC(=O)C=C(C#CC(O)(C(CC)CC)C1(C#N)CC1)C(F)(F)F` (racemic) [I.1-723], the ABI1 inhibition entry is given as “+++ (90%>inhibition≥70%)”. Turning to `CCC(C#CC(O)(c1cccc(F)c1)C1(C#N)CC1)=CC(=O)OC` (racemic) [I.1-768], the ABI1 inhibition result is on record as “++++ (inhibition≥90%)”.

Consider `CCCC(C#CC(O)(c1cccc(F)c1)C1(C#N)CC1)=CC(=O)O` (racemic) [I.1-773], for which the ABI1 inhibition entry is “+++ (90%>inhibition≥70%)”. `COC(=O)C=C(C#CC(O)(c1cccc(F)c1)C1(C#N)CC1)C(F)(F)F` (racemic) [I.1-782]: the ABI1 inhibition entry is listed as “+++ (90%>inhibition≥70%)”.

With `CCOC(=O)C=C(C#CC(O)(c1cccc(F)c1)C1(C#N)CC1)C(F)(F)F` (racemic) [I.1-783], the ABI1 inhibition result is on record as “+++ (90%>inhibition≥70%)”.

In the case of `CCOC(=O)C=C(C)C#CC(O)(c1cccc(F)c1)C1(C#N)CC1` (racemic) [I.1-792], the ABI1 inhibition entry is “+++ (90%>inhibition≥70%)”.

On to `CCC(C#CC(O)(c1ccc(C)cc1)C1(C#N)CC1)=CC(=O)OC` (racemic) [I.1-798], for which the ABI1 inhibition result was “++++ (inhibition≥90%)”.

Turning to `CCC(C#CC(O)(c1ccc(C)cc1)C1(C#N)CC1)=CC(=O)OCCOC` (racemic) [I.1-801], the ABI1 inhibition result is given as “++++ (inhibition≥90%)”.

With `CCOC(=O)C=C(C#CC(O)(c1ccc(C)cc1)C1(C#N)CC1)C(F)(F)F` (racemic) [I.1-813], the ABI1 inhibition result is reported as “+++ (90%>inhibition≥70%)”. For `CCOC(=O)C=C(C)C#CC(O)(c1ccc(C)cc1)C1(C#N)CC1` (racemic) [I.1-822], the ABI1 inhibition entry is “+++ (90%>inhibition≥70%)”. On to `CCCOC(=O)C=C(C#CC(O)(c1ccc(C)cc1)C1(C#N)CC1)C(F)(F)F` (racemic) [I.1-888], for which the ABI1 inhibition entry is “+++ (90%>inhibition≥70%)”. In the case of `CCOC(=O)C=C(C=CC(O)(C(C)C)C1(C#N)CC1)C1CCCC1` (racemic) [I.2-130], the ABI1 inhibition result is on record as “+++ (90%>inhibition≥70%)”. Consider `CC(C=CC(O)(C(C)C)C1(C#N)CC1)=CC(=O)O` (racemic) [I.2-134], for which the ABI1 inhibition entry is “++++ (inhibition≥90%)”. For the compound `COC(=O)C=C(C=CC(O)(C1CCCCC1)C1(C#N)CC1)C(F)(F)F` (racemic) [I.2-581], the ABI1 inhibition result is “++++ (inhibition≥90%)”. For the compound `CCCOC(=O)C=C(C=CC(O)(C1CCCCC1)C1(C#N)CC1)C(F)(F)F` (racemic) [I.2-582], the ABI1 inhibition result is “++++ (inhibition≥90%)”. `CCOC(=O)/C=C(/C)C#CC(C)(O)C1(C#N)CC1` (centres unmarked) [I.1-36]: the ABI1 inhibition result is “+++ (90%>inhibition≥70%)”. For `CCOC(=O)/C=C(\C#CC(O)(c1ccccc1)C1(C#N)CC1)CC` (centres unmarked) [I.1-203], the ABI1 inhibition entry is “++++ (inhibition≥90%)”.

With `COC(=O)/C=C(\C#CC(O)(c1ccccc1)C1(C#N)CC1)C(F)(F)F` (centres unmarked) [I.1-220], the ABI1 inhibition entry was “++++ (inhibition≥90%)”. As to `COC(=O)/C=C(\C#CC(O)(c1ccc(F)cc1)C1(C#N)CC1)C(F)(F)F` (centres unmarked) [I.1-520], the ABI1 inhibition result is “++++ (inhibition≥90%)”. Regarding `CC/C(C#CC(O)(c1ccc(F)cc1)C1(C#N)CC1)=C/C(=O)NC1CC1` (centres unmarked) [I.1-557], the ABI1 inhibition result is “++ (70%>inhibition≥50%)”.

On to `CC/C(C#CC(O)(c1ccc(F)cc1)C1(C#N)CC1)=C/C(=O)NC(C)C` (centres unmarked) [I.1-558], for which the ABI1 inhibition result is on record as “++ (70%>inhibition≥50%)”. For `CC/C(C#CC(O)(c1ccccc1)C1(C#N)CC1)=C/C(=O)OCCOC` (centres unmarked) [I.1-610], the ABI1 inhibition result is recorded as “++++ (inhibition≥90%)”. Still for that read-out and setting: to `CCCOC(=O)/C=C(\C#CC(O)(c1ccc(F)cc1)C1(C#N)CC1)CC` (centres unmarked) [I.1-613] belongs “++++ (inhibition≥90%)”; to `COC(=O)/C=C(\C#CC(O)(C1CC1)C1(C#N)CC1)C(F)(F)F` (centres unmarked) [I.1-632], “++++ (inhibition≥90%)”; to `COC(=O)/C=C(\C#CC(O)(C1CCCCC1)C1(C#N)CC1)C(F)(F)F` (centres unmarked) [I.1-692], “+++ (90%>inhibition≥70%)”.

Still in this test, the particulars now being: read-out: ABI1 inhibition.
Turning to `CC1=CC(=O)CC(C)(C)[C@@]1(O)/C=C/C(C)=C\C(=O)O` [abscisic acid, reference compound], the inhibition was over 90%.

These data come from patent US10322995B2, “Substituted cyano cycloalkyl penta-2,4-dienes, cyano cycloalkyl pent-2-en-4-ynes, cyano heterocyclyl penta-2,4-dienes and cyano heterocyclyl pent-2-en-4-ynes as active substances against abiotic plant stress” (BAYER CROPSCIENCE AKTIENGESELLSCHAFT, priority 2014, dated 2019).
